Data from US20170239239A1, “Method for Inducing a Sustained Immune Response” (Immune Therapeutics Inc., priority 2016, published 2017).

How the values were obtained:
[1] = test system: advanced pancreatic cancer; settings: historical controls; cited from earlier work
IBS patients = assay: Open-label study of PTI-901 in 42 IBS patients; type: in vivo, human
Description: Forty-two IBS patients participated in an open-label study. Participants received 0.5 mg PTI-901/day for 4 weeks and were evaluated during baseline, during treatment, and at 4-week follow-up. Patients recorded degree of abdominal pain, stool urgency, consistency, and frequency. Primary outcomes were number of pain-free days and overall symptom relief, evaluated by a global assessment score. Data were analyzed per protocol. Global assessment improved in 76% of 42 patients. During treatment, the mean weekly number of pain-free days increased from 0.5+/−1 to 1.25+/−2.14 (P=0.011).

SMILES | Clinical benefit response [1] | Global assessment improved (IBS patients; 0.5 mg/day for 4 weeks, of 42 patients) | mean weekly number of pain-free days (IBS patients; during treatment, from 0.5+/−1, P=0.011) | adverse reactions (IBS patients; human, in vivo)
O=c1[nH]cc(F)c(=O)[nH]1 [5-fluorouracil (5-FU), 5-fluorouracil] | 4.8% | – | – | –
Cl.O=C1CC[C@@]2(O)[C@H]3Cc4ccc(O)c5c4[C@@]2(CCN3CC2CC2)[C@H]1O5 [PTI-901] | – | 76% | 1.25+/−2.14 | no significant adverse reactions
Nc1ccn([C@@H]2O[C@H](CO)[C@@H](O)C2(F)F)c(=O)n1 [gemcitabine] | 23.8% | – | – | –
